The source of these data is PMC6429262, “Design and Synthesis of Novel Anti-Proliferative Emodin Derivatives and Studies on their Cell Cycle Arrest, Apoptosis Pathway and Migration” (Molecules, 2019).

For one assay, the system named is HepG2 cells. Description: CellTiter-Glo Luminescent Cell Viability Assay, HepG2. It is filed as cell-based, human. Particulars: HepG2 cells, 48 h, mean of three independent experiments. The procedure: (§1) The in vitro anti-proliferative activities of all the novel synthesized compounds were evaluated against HepG2 cells and MCF-7 cells by CellTiter-Glo® Luminescent Cell Viability Assay, using paclitaxel (a clinically used drug) as a positive control. Emodin (1) and compound 2 were also included for comparison.
(§2) HepG2 cells and MCF-7 cells were purchased from American Type Culture Collection (ATCC, Manassas, VA, USA). Cells were cultured in T75 flask (430641, Corning, New York, NY, USA), supplemented with high-glucose DMEM medium (Dulbecco’s modified Eagle’s medium, 11965-092, Gibco, New York, NY, USA) containing 10% Fetal bovine serum (FBS) and 1% penicillin (100 units/mL)-streptomycin (100 µg/mL) in a humidified incubator at 37 °C under 5% CO2 and 95% relative humidity (RH) atmosphere. The cells were harvested for metabolomics experiments using cell scrapers.
(§3) HepG2 cells and MCF-7 cells in 40 µL DMEM supplemented with 10% FBS were seeded at a density of 500 cells/well in 384-well cell culture plate (3570, Corning), respectively. After 24 h, the medium was substituted with fresh medium containing various sample solutions in DMSO (0.5%, v/v) at a dose range of 0.14–100 µM with 3-fold serial dilutions, and cells were cultured for another 48 h. Cells were cultured in medium without samples but 0.5% DMSO served as a control. All measurements were determined in triplicate for each treatment. After the sample treatment for 48 h, 20 µL CellTiter-Glo (G7573, Promega, Fitchburg, WI, USA) was added to each well containing cells and the contents were mixed for 2 min on an orbital shaker to induce cell lysis. The plates were then incubated at room temperature for 20 min to stabilize the luminescent signal. The luminescence was recorded on an Envision 2014 (Perkin Elmer, Waltham, MA, UAS). The IC50 values represented the samples’ concentrations required to inhibit 50% of cell proliferation and were calculated from a calibration curve by linear regression using GraphPad Prism 7.0 software (GraphPad Software, San Diego, CA, USA).
(In general: Cellular ATP, detected with luciferase, serves as a proxy for viable cell number.)

The next assay deals with L02 cells. Description: Cytotoxic activity against human normal liver cells (L02). It is filed as cell-based. The conditions noted are these: Homo sapiens, L02, human normal liver L02 cells.
The next assay relates to MCF-7 cells. Description: CellTiter-Glo Luminescent Cell Viability Assay, MCF-7. It is filed as cell-based, human. Particulars: for IC50: MCF-7 cells, 48 h, mean of three independent experiments. The procedure:
as §1, §2, §3

On to `Cc1cc(O)c2c(c1)C(=O)c1cc(OCCOC(=O)[C@@H](C)N)cc(O)c1C2=O` [Compound 3b, (R)-1-(2-(4,5-Dihydroxy-7-methyl-9,10-dioxo-9,10-dihydroanthracen-2-yloxy)ethoxy)-1-oxopropan-2-aminium 2,2,2-trifluoroacetate], for which the half-inhibitory concentration (IC50) was 8.22 ± 0.13 µM with HepG2 cells (Homo sapiens, HepG2, 48 h); 33.6 ± 0.36 µM in the assay with L02 cells; 8.99 ± 0.64 µM in the assay on MCF-7 cells (Homo sapiens, MCF7, 48 h).

Turning to `Cc1cc(O)c2c(c1)C(=O)c1cc(OCCOC(=O)[C@@H](N)Cc3ccccc3)cc(O)c1C2=O` [Compound 3x, (S)-1-(2-(4,5-Dihydroxy-7-methyl-9,10-dioxo-9,10-dihydroanthracen-2-yloxy)ethoxy)-1-oxo-3-phenyl-propan-2-aminium 2,2,2-trifluoroacetate], the half-maximal inhibitory concentration (IC50) in the assay on HepG2 cells (Homo sapiens, HepG2, 48 h) turned out to be 16.2 ± 0.36 µM; in the assay on MCF-7 cells (Homo sapiens, MCF7, 48 h), 18.1 ± 0.32 µM.

On to `Cc1cc(O)c2c(c1)C(=O)c1cc(OCCOC(=O)[C@H](N)Cc3ccc(O)cc3)cc(O)c1C2=O` [Compound 3y, (R)-1-(2-(4,5-Dihydroxy-7-methyl-9,10-dioxo-9,10-dihydroanthracen-2-yloxy)ethoxy)-3-(4-hydroxyphenyl)-1-oxopropan-2-aminium 2,2,2-trifluoroacetate], for which the IC50 with HepG2 cells (Homo sapiens, HepG2, 48 h) was 20.3 ± 1.4 µM; in the assay on MCF-7 cells (Homo sapiens, MCF7, 48 h) it was 38.3 ± 1.92 µM.

With `CN[C@H](C)C(=O)OCCOc1cc(O)c2c(c1)C(=O)c1cc(C)cc(O)c1C2=O` [Compound 4a, (R)-1-(2-(4,5-Dihydroxy-7-methyl-9,10-dioxo-9,10-dihydroanthracen-2-yloxy)ethoxy)-N-methyl-1-oxo-propan-2-aminium 2,2,2-trifluoroacetate], the IC50 in the assay with HepG2 cells (Homo sapiens, HepG2, 48 h) is 13.7 ± 0.89 µM; with MCF-7 cells (Homo sapiens, MCF7, 48 h) it was 23.2 ± 0.33 µM.

As for `CN[C@@H](C)C(=O)OCCOc1cc(O)c2c(c1)C(=O)c1cc(C)cc(O)c1C2=O.O=C(O)C(F)(F)F` [Compound 4b, (S)-1-(2-(4,5-Dihydroxy-7-methyl-9,10-dioxo-9,10-dihydroanthracen-2-yloxy)ethoxy)-N-methyl-1-oxo-propan-2-aminium 2,2,2-trifluoroacetate], the IC50 with HepG2 cells (Homo sapiens, HepG2, 48 h) worked out at 40 ± 2.85 µM; with MCF-7 cells (Homo sapiens, MCF7, 48 h), 68.8 ± 2.25 µM. Moreover, in the assay with MCF-7 cells (MCF-7 cell lines), the “activity reduction compared to emodin (1)” value turned out to be 6 fold.

Take `Cc1cc(O)c2c(c1)C(=O)c1cc(OCCOC(=O)[C@@H](C)N(C)C)cc(O)c1C2=O` [Compound 5a, (R)-1-(2-(4,5-Dihydroxy-7-methyl-9,10-dioxo-9,10-dihydroanthracen-2-yloxy)ethoxy)-N,N-dimethyl-1-oxo-propan-2-aminium 2,2,2-trifluoroacetate]: the half-inhibitory concentration (IC50) was 18.1 ± 2.79 µM in the assay on HepG2 cells (Homo sapiens, HepG2, 48 h) and 25.2 ± 1.92 µM with MCF-7 cells (Homo sapiens, MCF7, 48 h).

For the molecule `Cc1cc(O)c2c(c1)C(=O)c1cc(OCCOC(=O)[C@H](C)N(C)C)cc(O)c1C2=O` [Compound 5b, (S)-1-(2-(4,5-Dihydroxy-7-methyl-9,10-dioxo-9,10-dihydroanthracen-2-yloxy)ethoxy)-N,N-dimethyl-1-oxo-propan-2-aminium 2,2,2-trifluoroacetate], the half-inhibitory concentration (IC50) in the assay with HepG2 cells (Homo sapiens, HepG2, 48 h) stood at 18.6 ± 2.07 µM; in the assay with MCF-7 cells (Homo sapiens, MCF7, 48 h), 16.2 ± 0.67 µM.

Consider `Cc1cc(O)c2c(c1)C(=O)c1cc(OCCCOC(=O)[C@H](C)N)cc(O)c1C2=O` [Compound 7b, (S)-1-(3-(4,5-Dihydroxy-7-methyl-9,10-dioxo-9,10-dihydroanthracen-2-yloxy)propoxy)-1-oxopropan-2-aminium 2,2,2-trifluoroacetate], for which the half-inhibitory concentration (IC50) was determined as 6.47 ± 0.21 µM in the assay on HepG2 cells (Homo sapiens, HepG2, 48 h) and 6.47 ± 0.18 µM in the assay with MCF-7 cells (Homo sapiens, MCF7, 48 h).

Regarding `Cc1cc(O)c2c(c1)C(=O)c1cc(OCCCCOC(=O)[C@@H](C)N)cc(O)c1C2=O` [Compound 7c, (R)-1-(4-(4,5-Dihydroxy-7-methyl-9,10-dioxo-9,10-dihydroanthracen-2-yloxy)butoxy)-1-oxopropan-2-aminium 2,2,2-trifluoroacetate], the 50% inhibitory concentration (IC50) stood at 11.4 ± 1.69 µM in the assay on HepG2 cells (Homo sapiens, HepG2, 48 h) and 12.7 ± 0.55 µM in the assay on MCF-7 cells (Homo sapiens, MCF7, 48 h).

With `Cc1cc(O)c2c(c1)C(=O)c1cc(OCCCCOC(=O)[C@H](C)N)cc(O)c1C2=O` [Compound 7d, (S)-1-(4-(4,5-Dihydroxy-7-methyl-9,10-dioxo-9,10-dihydroanthracen-2-yloxy)butoxy)-1-oxopropan-2-aminium 2,2,2-trifluoroacetate], the IC50 in the assay on HepG2 cells (Homo sapiens, HepG2, 48 h) is 11 ± 1.47 µM; in the assay with MCF-7 cells (Homo sapiens, MCF7, 48 h), 14.9 ± 0.57 µM.

As for `Cc1cc(O)c2c(c1)C(=O)c1cc(OCCOCCOC(=O)[C@@H](C)N)cc(O)c1C2=O` [Compound 7g, (R)-1-(2-(2-(4,5-Dihydroxy-7-methyl-9,10-dioxo-9,10-dihydroanthracen-2-yloxy)ethoxy)ethoxy)-1-oxo-propan-2-aminium 2,2,2-trifluoroacetate], the IC50 was determined as 15.2 ± 0.66 µM with HepG2 cells (Homo sapiens, HepG2, 48 h) and 12.6 ± 0.46 µM in the assay with MCF-7 cells (Homo sapiens, MCF7, 48 h).

For the molecule `Cc1cc(O)c2c(c1)C(=O)c1cc(OCCOCCOC(=O)[C@H](C)N)cc(O)c1C2=O` [Compound 7h, (S)-1-(2-(2-(4,5-Dihydroxy-7-methyl-9,10-dioxo-9,10-dihydroanthracen-2-yloxy)ethoxy)ethoxy)-1-oxo-propan-2-aminium 2,2,2-trifluoroacetate], the concentration for half-maximal inhibition (IC50) is 11.4 ± 0.47 µM in the assay with HepG2 cells (Homo sapiens, HepG2, 48 h) and 12.5 ± 0.44 µM in the assay on MCF-7 cells (Homo sapiens, MCF7, 48 h).

`Cc1cc(O)c2c(c1)C(=O)c1cc(OCCOCCOCCOC(=O)[C@@H](C)N)cc(O)c1C2=O` [Compound 7i, (R)-1-(2-(2-(2-(4,5-Dihydroxy-7-methyl-9,10-dioxo-9,10-dihydroanthracen-2-yloxy)ethoxy)ethoxy)ethoxy)-1-oxopropan-2-aminium 2,2,2-trifluoroacetate]: the IC50 in the assay on HepG2 cells (Homo sapiens, HepG2, 48 h) stood at 28.7 ± 0.87 µM; in the assay with MCF-7 cells (Homo sapiens, MCF7, 48 h) it was 20.8 ± 1.87 µM.

Regarding `Cc1cc(O)c2c(c1)C(=O)c1cc(OCCOCCOCCOC(=O)[C@H](C)N)cc(O)c1C2=O` [Compound 7j, (S)-1-(2-(2-(2-(4,5-Dihydroxy-7-methyl-9,10-dioxo-9,10-dihydroanthracen-2-yloxy)ethoxy)ethoxy)ethoxy)-1-oxopropan-2-aminium 2,2,2-trifluoroacetate], the IC50 was 31.9 ± 2.77 µM in the assay with HepG2 cells (Homo sapiens, HepG2, 48 h) and 25.6 ± 0.58 µM with MCF-7 cells (Homo sapiens, MCF7, 48 h).

For the molecule `Cc1cc(O)c2c(c1)C(=O)c1cc(OCCOCCOCCOCCOC(=O)[C@@H](C)N)cc(O)c1C2=O` [Compound 7k, (R)-1-(4,5-Dihydroxy-7-methyl-9,10-dioxo-9,10-dihydroanthracen-2-yloxy)-13-oxo-3,6,9,12-tetraoxapenta-decan-14-aminium 2,2,2-trifluoroacetate], the IC50 is 37.2 ± 2.44 µM with HepG2 cells (Homo sapiens, HepG2, 48 h) and 37.8 ± 2.44 µM with MCF-7 cells (Homo sapiens, MCF7, 48 h).

With `Cc1cc(O)c2c(c1)C(=O)c1cc(OCCOCCOCCOCCOC(=O)[C@H](C)N)cc(O)c1C2=O` [Compound 7l, (S)-1-(4,5-Dihydroxy-7-methyl-9,10-dioxo-9,10-dihydroanthracen-2-yloxy)-13-oxo-3,6,9,12-tetraoxa-pentadecan-14-aminium 2,2,2-trifluoroacetate], the IC50 with HepG2 cells (Homo sapiens, HepG2, 48 h) worked out at 60.6 ± 4.26 µM; in the assay on MCF-7 cells (Homo sapiens, MCF7, 48 h), 41.8 ± 2.24 µM.

For the molecule `CC(=O)O[C@H]1C(=O)[C@@]2(C)[C@H]([C@H](OC(=O)c3ccccc3)[C@]3(O)C[C@H](OC(=O)[C@H](O)[C@@H](NC(=O)c4ccccc4)c4ccccc4)C(C)=C1C3(C)C)[C@]1(OC(C)=O)CO[C@@H]1C[C@@H]2O` [Paclitaxel, reference compound], the IC50 in the assay on HepG2 cells (Homo sapiens, HepG2, 48 h) was 10.3 ± 0.26 µM; in the assay on MCF-7 cells (Homo sapiens, MCF7, 48 h), 4.89 ± 0.11 µM.

With “(S)-1-(2-(4,5-Dihydroxy-7-methyl-9,10-dioxo-9,10-dihydroanthracen-2-yloxy)ethoxy)-3-(4-hydroxyphenyl)-1-oxopropan-2-aminium 2,2,2-trifluoroacetate [Compound 3z]”, the 50% inhibitory concentration (IC50) was 14.1 ± 1.22 µM with HepG2 cells and 17.3 ± 0.26 µM in the assay with MCF-7 cells.

For orientation: IC50 means the midpoint of a concentration-inhibition curve.
